# Where a name gives a salt, the structure may show the parent alone. Read-outs that look alike come from different tables or passages of the source.
# Tests used:
# Format in all cases: cell-based
# [1] = test system: E. coli NIHJ; experiment: Antibacterial activity (MIC, agar plate, standard method of the Japanese Chemotherapeutic Society); conditions: 10^4 cells/plate, 37° C., 20 hours
# Experimental: (§1) According to the standard method of the Japanese Chemotherapeutic Society [Chemotherapy, Vol. 23, Pages 1-2 (1975)], a culture obtained by cultivating bacteria in Heart Infusion broth (manufactured by Eken Kagakusha) at 37° C. for 20 hours was inoculated into a Heart Infusion agar medium (manufactured by Eiken Kagakusha) and cultivated at 37° C. for 20 hours, after which the growth of bacteria was examined visually. The minimum inhibitory concentration at which the bacterial growth was inhibited was taken as MIC (μg/ml). The amount of the inoculated bacteria was 10^4 cells/plate (10^6 cells/ml).
# [2] = test system: Ser. marcescens IID620; experiment: Antibacterial activity (MIC, agar plate); conditions: Serratia marcescens, IID620, 20 h
# Experimental: as §1
# [3] = test system: Kl. pneumoniae Y-50; experiment: Antibacterial activity (MIC, agar plate); conditions: 37° C., 20 hours
# Experimental: as §1
# [4] = test system: E. coli TK3 (Penicillinase-producing bacteria); experiment: Antibacterial activity (MIC, agar plate)
# Experimental: as §1
# [5] = test system: Aci. calcoaceticus A-6; experiment: Antibacterial activity (MIC, agar plate); conditions: Acinetobacter calcoaceticus, A6, 10^4 cells/plate, 37° C., 20 hours, read-out: MIC
# Experimental: as §1
# [6] = test system: Ent. cloacae IID977; experiment: Antibacterial activity (MIC, agar plate); conditions: Enterobacter cloacae, 10^4 cells/plate, 37° C., 20 hours, read-out: MIC
# Experimental: as §1
# [7] = test system: Pro. mirabilis T-111; experiment: Antibacterial activity (MIC, agar plate)
# Experimental: as §1
# [8] = test system: Al. faecalis B-1; experiment: Antibacterial activity (MIC, agar plate); conditions: Alcaligenes faecalis, B1; Al. faecalis B-1; 10^4 cells/plate, 37° C., 20 hours; read-out: MIC
# Experimental: as §1
# [9] = test system: Kl. pneumoniae Y-41; experiment: Antibacterial activity (MIC, agar plate)
# Experimental: as §1
# [10] = test system: Pro. vulgaris GN76 (Cephalosporinase-producing bacteria); experiment: Antibacterial activity (MIC, agar plate); conditions: Proteus vulgaris; Pro. vulgaris GN76 (cephalosporinase-producing); 10^4 cells/plate, 37° C., 20 hours; read-out: MIC
# Experimental: as §1
# [11] = test system: Pro. morganii T-216; experiment: Antibacterial activity (MIC, agar plate); conditions: Morganella morganii, T216, 20 h
# Experimental: as §1
# [12] = test system: Pro. mirabilis T-100; experiment: Antibacterial activity (MIC, agar plate); conditions: 37° C., 20 hours
# Experimental: as §1
# [13] = Escherichia coli, read-out: MIC
# [14] = Klebsiella pneumoniae, Y50, 10^4 cells/plate, read-out: MIC
# [15] = Klebsiella pneumoniae, Y41, Kl. pneumoniae Y-41, 10^4 cells/plate, 37° C., 20 hours, read-out: MIC
# [16] = Proteus mirabilis, T100, 10^4 cells/plate, read-out: MIC
# [17] = Klebsiella pneumoniae, Y41, 20 h
Compound,"MIC [1, 13] [µg/mL]","MIC [3, 14] [µg/mL]","MIC ([4]; Escherichia coli, 20 h) [µg/mL]","MIC ([7]; Proteus mirabilis, T111, 20 h) [µg/mL]","MIC [9, 15] [µg/mL]","MIC [12, 16] [µg/mL]",other results
"CO/N=C(\C(=O)NC1C(=O)N2C(C(=O)O)=C(Cn3nnc(N)n3)CSC12)c1csc(N)n1 (stereo not drawn) [H, Trifluoroacetic acid salt of 7-[2-(2-aminothiazol-4-yl)-2-(syn)-methoxyiminoacetamido]-3-[2-(5-amino-1,2,3,4-tetrazolyl)methyl]-Δ^3-cephem-4-carboxylic acid]",≤ 0.1,0.2,0.78,0.39,0.39,–,MIC [2]: 0.78 µg/mL; MIC [5]: 25 µg/mL; MIC [6]: 12.5 µg/mL; MIC [8]: 12.5 µg/mL; MIC [10]: 1.56 µg/mL; MIC [11]: 0.78 µg/mL
"CO/N=C(\C(=O)NC1C(=O)N2C(C(=O)O)=C(Cn3nnc(NC(C)=O)n3)CSC12)c1csc(N)n1 (stereo not drawn) [I, Trifluoroacetic acid salt of 7-[2-(2-aminothiazol-4-yl)-2-(syn)-methoxyiminoacetamido]-3-[2-(5-acetamido-1,2,3,4-tetrazolyl)methyl]-Δ^3-cephem-4-carboxylic acid]",≤ 0.1,≤ 0.1,0.39,≤ 0.1,–,≤ 0.1,"MIC [9, 17]: 0.2 µg/mL"
"CO/N=C(\C(=O)NC1C(=O)N2C(C(=O)O)=C(Cn3nnc(C)n3)CSC12)c1csc(N)n1 (stereo not drawn) [J, Trifluoroacetic acid salt of 7-[2-(2-aminothiazol-4-yl)-2-(syn)-methoxyiminoacetamido]-3-[2-(5-methyl-1,2,3,4-tetrazolyl)methyl]-Δ^3-cephem-4-carboxylic acid]",≤ 0.1,≤ 0.1,0.39,–,–,≤ 0.1,"MIC ([7]; Proteus mirabilis, T111, Pro. mirabilis T-111, 10^4 cells/plate, 37° C., 20 hours, read-out: MIC): 0.2 µg/mL; MIC [9, 17]: ≤ 0.39 µg/mL"
"CCc1nnn(CC2=C(C(=O)O)N3C(=O)C(NC(=O)/C(=N\OC)c4csc(N)n4)C3SC2)n1 (stereo not drawn) [K, Trifluoroacetic acid salt of 7-[2-(2-aminothiazol-4-yl)-2-(syn)-methoxyiminoacetamido]-3-[2-(5-ethyl-1,2,3,4-tetrazolyl)methyl]-Δ^3-cephem-4-carboxylic acid]",≤ 0.1,0.2,0.39,0.78,0.78,≤ 0.1,–
"CO/N=C(\C(=O)NC1C(=O)N2C(C(=O)O)=C(Cn3cnc(Cl)n3)CS[C@H]12)c1csc(N)n1.O=C(O)C(F)(F)F (stereo partly drawn) [L, Trifluoroacetic acid salt of 7-[2-(2-aminothiazol-4-yl)-2-(syn)-methoxyiminoacetamido]-3-[(3-chloro-1,2,4-triazolyl)methyl]-Δ^3-cephem-4-carboxylic acid]",–,–,–,–,–,–,"MIC [1]: ≤ 0.1 µg/mL; MIC ([3]; 10^4 cells/plate): ≤ 0.1 µg/mL; MIC ([12]; 10^4 cells/plate): ≤ 0.1 µg/mL; MIC ([4]; E. coli TK3 (penicillinase-producing), 10^4 cells/plate, 37° C., 20 hours): 0.39 µg/mL; MIC ([7]; Pro. mirabilis T-111, 10^4 cells/plate, 37° C., 20 hours): 0.78 µg/mL; MIC ([9]; Kl. pneumoniae Y-41, 10^4 cells/plate, 37° C., 20 hours): 0.39 µg/mL"
"CC(=O)Nc1nnn(CC2=C(C(=O)O)N3C(=O)C(NC(=O)Cc4csc(N)n4)C3SC2)n1 (centres unmarked) [M, Trifluoroacetic acid salt of 7-[2-(2-aminothiazol-4-yl)acetamido]-3-[2-(5-acetamido-1,2,3,4-tetrazolyl)methyl]-Δ^3-cephem-4-carboxylic acid]",0.39,0.78,1.56,0.78,0.78,0.39,–
"Nc1nc(CC(=O)NC2C(=O)N3C(C(=O)O)=C(Cn4ncnn4)CSC23)cs1 (centres unmarked) [N, Trifluoroacetic acid salt of 7-[2-(2-aminothiazol-4-yl)acetamido]-3-[2-(1,2,3,4-tetrazolyl)methyl]-Δ^3-cephem-4-carboxylic acid]",0.39,0.39,1.56,0.78,0.78,0.39,–
